From paper PMC9995496, “A screen for MeCP2-TBL1 interaction inhibitors using a luminescence-based assay” (Scientific Reports, 2023)
Structures can show the parent of a compound that is named as a salt. Where two headings read alike, the source gives them in different places.

System: PRKACA-PRKAR2A interaction (SmBiT-PRKACA / LgBiT-PRKAR2A), protein kinase A
Set-up: NanoLuc complementation counter-screen in cell extract, PRKACA with PRKAR2A, loss of luminescence, detects NanoLuc interference
Settings: counter-screen for NanoLuc interference, 0.5 h, 20 µM, inhibitor

Structure (SMILES) | Inh (PKA) (Inh (PKA)) [%] | Inh (PKA) [%]
Cc1cc(Nc2cc(N3CCN(C)CC3)nc(/C=C/c3ccccc3)n2)n[nH]1 [UM0141724:01, ENMD-2076 L-(+)-Tartaric acid] | 17.98 | –
Cc1cc(Nc2cc(N3CCN(C)CC3)nc(/C=C/c3ccccc3)n2)n[nH]1 [UM0141725:01, ENMD-2076] | 15.95 | –
CN(C)c1ccc(-c2nc3ncc(Cl)c(N4CCN(CC(=O)Nc5nccs5)CC4)c3[nH]2)cc1 [UM0141726:01, CCT129202] | – | 76.32
Cc1cc(CN2CCN(c3c(Br)cnc4nc(-c5ccc(N6CCN(C)CC6)cc5)[nH]c34)CC2)no1 [UM0141727:01, CCT137690] | – | 46.74
C[C@@H]1CCN(C(=O)CC#N)C[C@@H]1N(C)c1ncnc2[nH]ccc12 [UM0141728:01, Tofacitinib (CP-690550) Citrate] | -4.37 | –
C[C@H](NC(=O)/C(C#N)=C/c1cccc(Br)n1)c1ccccc1 [UM0141729:01, WP1066] | – | 28.21
Cc1cnc(Nc2ccc(N3CCN(C)CC3)cc2)nc1Nc1cccc(S(=O)(=O)NC(C)(C)C)c1 [UM0141731:01, TG101209] | – | 36.26
CN1CCN(c2cccc(Nc3nc4c(-c5ccc(S(C)(=O)=O)cc5)cccn4n3)c2)CC1 [UM0141732:01, CEP-33779] | – | 32.81
CCn1c(C(=O)N(C2CC2)C2CC2)cc2c3c(ncn3C)c(Nc3cc(C)n(C)n3)nc21 [UM0141734:01, BMS-911543] | – | 4.215
Cn1ncnc1[C@H]1c2n[nH]c(=O)c3cc(F)cc(c23)N[C@@H]1c1ccc(F)cc1 [UM0141735:01, BMN 673] | – | 5.771
NC(=O)c1ccc(I)c([N+](=O)[O-])c1 [UM0141736:01, Iniparib (BSI-201)] | – | 1.39
CN(C)Cc1ccc(-c2nc3cccc4c3n2CCNC4=O)cc1 [UM0141737:01, AG-14361] | – | 2.033
CN(C)CC(=O)Nc1ccc2[nH]c(=O)c3ccccc3c2c1 [UM0141738:01, PJ34 hydrochloride] | – | 3.156
NC(=O)c1cccc2[nH]c(-c3ccc([C@@H]4CCCN4)cc3F)nc12 [UM0141739:01, A-966492] | – | 5.639
O=C(COc1cccc2c(=O)[nH]ccc12)c1ccccc1 [UM0141740:01, UPF 1069] | – | 15.76
COC1CCN(C(=O)c2cc(Cc3n[nH]c(=O)c4ccccc34)ccc2F)CC1 [UM0141741:01, AZD2461] | – | 1.514
CC(C)N(CCCNC(=O)Nc1ccc(C(C)(C)C)cc1)C[C@H]1O[C@@H](n2cc(Br)c3c(N)ncnc32)[C@H](O)[C@@H]1O [UM0141743:01, SGC 0946] | – | 3.83
CCN(CC)C(=O)/C(C#N)=C/c1cc(O)c(O)c([N+](=O)[O-])c1 [UM0141744:01, Entacapone] | – | 34.9
CC(C)N(CCCNC(=O)Nc1ccc(C(C)(C)C)cc1)C[C@H]1O[C@@H](n2ccc3c(N)ncnc32)[C@H](O)[C@@H]1O [UM0141745:01, EPZ004777] | – | 1.222
Cc1cc(C)c(CNC(=O)c2cc(-c3ccc(CN4CCOCC4)cc3)cc3c2cnn3C2CCCC2)c(=O)[nH]1 [UM0141746:01, EPZ005687] | – | 11.88
Nc1nc2[nH]cnc2c(=S)[nH]1 [UM0141747:01, Thioguanine] | – | 3.135
CC(NC(=O)c1ccccc1/N=C/c1c(O)ccc2ccccc12)c1ccccc1 (stereo not drawn) [UM0141749:01, Sirtinol] | – | 11.59
COc1ccccc1S(=O)(=O)Nc1ccc2c(c1)CN(C)C(=O)N2 [UM0141750:01, PFI-1 (PF-6405761)] | – | 3.719
CCOC(=O)Nc1cc(-c2ccc(C)c(NS(C)(=O)=O)c2)nn2c(C)nnc12 [UM0141751:01, Bromosporine] | – | 9.043
Cc1nc(C(=O)NCC(=O)O)c(O)c2ccc(Oc3ccccc3)cc12 [UM0141752:01, FG-4592 (ASP1517)] | – | 9.511
O=C(O)CNC(=O)c1c(O)c2ccccc2n(Cc2ccccc2)c1=O [UM0141753:01, IOX2(Glycine)] | – | 18.92
CCOC(=O)CCNc1cc(N2CCc3ccccc3CC2)nc(-c2ccccn2)n1 [UM0141754:01, GSK J4 HCl] | – | 11.33
